Among the data in US8486948B2, “Piperazinodihydrothienopyrimidine derivatives” (Boehringer Ingelheim International GmbH, priority 2007, dated 2013) are inhibition values, retold here.

Molecules are shown by their SMILES. Where a name gives a salt, the structure may show the parent alone.

Broadly, the inhibition is how much of the control response was suppressed. Read a low inhibition as a response near the control.

Chain of PDE4B (Q07343 whole entry, species assumed): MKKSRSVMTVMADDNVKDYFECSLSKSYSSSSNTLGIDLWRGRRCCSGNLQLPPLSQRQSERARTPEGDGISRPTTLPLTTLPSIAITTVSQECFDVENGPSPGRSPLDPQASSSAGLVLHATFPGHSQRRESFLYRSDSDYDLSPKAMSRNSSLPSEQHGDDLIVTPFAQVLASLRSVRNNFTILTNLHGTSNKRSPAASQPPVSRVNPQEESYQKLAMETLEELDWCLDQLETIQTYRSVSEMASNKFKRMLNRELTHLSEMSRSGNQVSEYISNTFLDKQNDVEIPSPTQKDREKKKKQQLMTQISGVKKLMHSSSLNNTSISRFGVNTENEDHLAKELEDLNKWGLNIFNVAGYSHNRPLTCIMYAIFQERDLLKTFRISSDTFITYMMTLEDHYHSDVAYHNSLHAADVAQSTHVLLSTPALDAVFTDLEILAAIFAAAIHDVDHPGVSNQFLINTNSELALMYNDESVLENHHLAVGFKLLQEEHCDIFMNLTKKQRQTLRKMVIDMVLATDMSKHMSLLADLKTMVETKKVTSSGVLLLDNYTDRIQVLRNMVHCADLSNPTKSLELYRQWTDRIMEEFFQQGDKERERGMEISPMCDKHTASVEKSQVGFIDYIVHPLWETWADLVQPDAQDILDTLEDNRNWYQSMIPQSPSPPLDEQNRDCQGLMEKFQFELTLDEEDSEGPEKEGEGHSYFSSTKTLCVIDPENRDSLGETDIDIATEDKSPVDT

For one test, the target named is PDE4B (Homo sapiens, UniProt Q07343). The test can be described thus: Scintillation Proximity (SPA) assay, inhibition of PDE4B at 1 μM. The test is classed as biochemical. Conditions: Table A; test substance 1 μM; one hour incubation with [H3]-cAMP at 30° C. As to the method: The inhibitions (in %) at 1 μM of the individual Example substances are included in the following Tables of Examples and were determined as follows:
The Scintilation Proximity (SPA) Assays (GE Healthcare, No. TRKQ7090) make use of the different affinities of cyclic 3″-5″-adenosine monophosphate (cAMP, low affinity) and linear 5′-adenosine monophosphate (AMP, high affinity) for yttrium silicate scintillator beads. The cAMP specific phosphodiesterase (PDE) PDE4B cleaves the 3′-phosphoester bond of the tritium-labelled [H3]-cAMP to form the [H3]-5′-AMP. Because of its higher affinity for the scintillator beads this [H3]-AMP accumulates on the beads and causes scintillation events (flashes of light) which are measured in a Wallac Microbeta Scintillation Counter.
The test starts with one hour's incubation of [H3]-cAMP with the PDE4B enzyme in assay buffer at 30° C., once with the Example substance that is to be tested (in a concentration of 1 μM) and once without the Example substance that is to be tested. After this incubation the reaction is stopped by the addition of the beads. The beads are given an opportunity to settle over the next 45 minutes, then they are measured in the Scintillation Counter. If the substance is capable of inhibiting the enzymatic activity of the PDE4B, less [H3]-AMP is formed during the incubation phase and fewer scintillation events can be measured.
A general note: In a scintillation proximity assay essentially only radioactivity close to the scintillant gives light.
As to `O=C1CN(c2nc3c(c(NC4(CO)CC4)n2)[S+]([O-])CC3)CCN1c1cccc(Br)c1` (stereo not drawn) [Example 13], the inhibition at 1 µM is 19%. The same measure, in the same setting: as for `[O-][S+]1CCc2nc(N3CC4CC3CN4c3ccc(Br)cc3)nc(NC3(CO)CC3)c21` (stereo not drawn) [Example 22], the figure is 95%.

`[O-][S+]1CCc2nc(N3C[C@H]4CC3CN4c3ccc(F)cc3)nc(NC3(CO)CC3)c21` (stereo partly drawn) [Example 24, (1-{2-[5-(4-fluorophenyl)-2,5-diazabicyclo[2,2,1]hept-2-yl]-5-oxo-6,7-dihydro-5H-5λ^4-thieno[3,2-d]pyrimidin-4-ylamino}-cyclopropyl)-methanol] came in with an inhibition at 1 µM of 93%. Same read-out and setting: as for `[O-][S+]1CCc2nc(N3C[C@H]4CC3CN4c3ccc(Br)cc3)nc(Nc3cccc(F)c3)c21` (stereo partly drawn) [Example 21, {2-[5-(4-bromophenyl)-2,5-diazabicyclo[2,2,1]hept-2-yl]-5-oxo-6,7-dihydro-5H-5λ^4-thieno[3,2-d]pyrimidin-4-yl}-(3-fluorophenyl)-amine], the figure is 95%.

Staying with this test, now noted: Table C; test substance 1 μM; one hour incubation with [H3]-cAMP at 30° C.
Molecule `[O-][S+]1CCc2nc(N3CCn4cnnc4C3)nc(NC3(CO)CC3)c21` (stereo not drawn) [Example 33, {1-[2-(5,6-DIHYDRO-8H-[1,2,4]TRIAZOLO[4,3-A]PYRAZIN-7-YL)-5-OXO-6,7-DIHYDRO-5H-5λ^4-THIENO[3,2-D]PYRIMIDIN-4-YLAMINO]-CYCLOPROPYL}-METHANOL TRIFLUORACETATE] returned an inhibition at 1 µM of 75%. Still for that read-out and setting: as for `[O-][S+]1CCc2nc(N3CCn4c(nnc4-c4ccc(F)cc4)C3)nc(NC3(CO)CC3)c21` (stereo not drawn) [Example 31], the figure is 93%; as for `CC(C)[C@H](CO)Nc1nc(N2CCn3cnnc3C2)nc2c1[S+]([O-])CC2` (stereo partly drawn) [Example 45, (R)-2-[2-(5,6-DIHYDRO-8H-[1,2,4]TRIAZOLO[4,3-A]PYRAZIN-7-YL)-5-OXO-6,7-DIHYDRO-5H-5λ^4-THIENO[3,2-D]PYRIMIDIN-4-YLAMINO]-3-METHYL-BUTAN-1-OL TRIFLUOROACETATE], 55%; as for `CC(C)[C@H](CO)Nc1nc(N2CCn3c(Cc4ccc(Cl)c(Cl)c4)nnc3C2)nc2c1[S+]([O-])CC2` (stereo partly drawn) [Example 44], 78%.

Staying with this test, now noted: Table D; test substance 1 μM; one hour incubation with [H3]-cAMP at 30° C.
Consider `O=C(c1cn2c(n1)CN(c1nc3c(c(NC4CCOCC4)n1)[S+]([O-])CC3)CC2)N(C1CCOCC1)C1CC1` (stereo not drawn) [Example 55], for which the inhibition at 1 µM came to 93%. On the same count and under the same terms, as for `CN(C(=O)c1cn2c(n1)CN(c1nc3c(c(NC4CCOCC4)n1)[S+]([O-])CC3)CC2)C1CC1` (stereo not drawn) [Example 50], the figure is 93%. On the same count and under the same terms, for `CN1CCC(N(C)C(=O)c2cn3c(n2)CN(c2nc4c(c(NC5CCOCC5)n2)[S+]([O-])CC4)CC3)CC1` (stereo not drawn) [Example 49] the value was 93%; for `Cc1nn(C)cc1CNC(=O)c1cn2c(n1)CN(c1nc3c(c(NC4CCOCC4)n1)[S+]([O-])CC3)CC2` (stereo not drawn) [Example 57], 94%.
